A short description of data set [1]: Blood brain barrier permeability (PVDF membrane coated with porcine brain polar lipid extract). In kind it is in vitro ADME. The note with it: for recovery at 4 h, 10 μM: pig, not told. The protocol: Preparation of Donor Solution a) 0.2 mM working solution was prepared by diluting 10 mM stock solution with DMSO. b) 10 μM donor solution (5% DMSO) was prepared by diluting 20 μL of working solution with 380 μL PBS. 2) 150 μL of 10 μM donor solutions to each well of the donor plate, whose PVDF membrane was precoated with 5 μL of 1% brain polar lipid extract (Porcine)/dodecane mixture. Duplicates were prepared. 3) 300 μL of PBS was added to each well of the PTFE acceptor plate. 4) The donor plate and acceptor plate were combined together and incubated for 4h at room temperature with shaking at 300 rpm. 5) Preparation of TO sample: 20 μL donor solution was transferred to new well followed by the addition of 250 μL PBS (DF: 13.5), 130 μL ACN (containing internal standard) as TO sample. 6) Preparation of acceptor sample: The plate was removed from incubator. 270 μL solution was transferred from each acceptor well and mixed with 130 μL ACN (containing internal standard) as acceptor sample. 7) Preparation of donor sample: […] was transferred from each donor well and mixed with 250 μL PBS (DF: 13.5), 130 μL ACN (containing internal standard) as donor sample. 8) Acceptor samples and donor samples were all analyzed by LC/MS/MS.

Data set [2] deals with colchicine binding site of tubulin. In words: EBI labeling assay in MIA PaCa2 cells (Western blot). In kind it is cell-based. The note with it: 2 hours compound, then 2 hours 100 μM EBI, FIG. 2, FIG. 3.
Method: MIA PaCa2 cells were cultured in DMEM+10% FBS and 1% P/S. Cells were plated at 1.5-2×10^6 in 60 mm dishes. For drug treatments, cells were treated the day after plating with 0.1% DMSO or the compounds tested at the concentrations indicated in FIG. 2 for 2 hours.
• Cells were treated with compounds for 2 hours at 37°, 5% CO2 (in the cell culture incubator), and then for an additional 2 hours with 100 μM EBI (with compounds present) under the same conditions. • Cells were then harvested with Trypsin and pelleted at 500 g for 3 minutes. • Cells were rinsed in 1 mL PBS and transferred to clean epi tubes. […] BCA assay plates were incubated for 15 minutes in the 37-degree incubator in the outer molecular lab. • After protein normalization (including addition of reducing Laemmli buffer from a 6× stock) samples were boiled at 95 degrees for 3 minutes and frozen for subsequent Western Blotting.
Significance in difference of treated MIA PaCa-2 cells to 0.1% DMSO treated cells were tested by Student t test (* p<0.05; ** p<0.01; *** p<0.001).
In the next data set the test system is HCT116 cells. In words: Kinetochore assembly, immunocytochemistry / confocal microscopy. In kind it is cell-based. The note with it: 300 nM, 24h. The protocol:
The HCT116 cells were cultured using DMEM media supplemented with 10% FBS and 1% Pen/Strep. Cells were maintained to a maximum of 80% confluency before being split and plated into coverslips in 12-well plates.
1. HCT116 cells were plated on Poly-D-Lysine German Glass Coverslips (#1.5, 18 mm)
2. After 24h cells were treated with 300 nM of Compound 1 and Nocodozole.
3. After 24h cells were washed briefly with PBS and fixed with warm 4% paraformaldehyde at room temperature for 10 min.
4. Cells were permeabilized and blocked in 10% goat serum, 0.5% Triton-X in PBS for 1 hr.
5. Cells were incubated with Primary antibodies overnight.
6. Washed 3× with PBS for 10 min
7. Incubated with secondary antibodies at room temperature for 1 hr.
8. Washed 3× with PBS for 10 min
9. Coverslips were mounted with ProLong Gold Anti-Fade Mount with DAPI and imaged with Olympus FV1200 MPE Microscope.
10. Images were collected with identical confocal settings for all of the samples and Z-stacked images were projected with maximal projection mode using Fluor View Software.
1. Selected cells of interest using the drawing/selection tools (i.e. rectangle, circle, polygon or freeform).
2. From the Analyze menu selected “Measure.”
3. Selected region with no fluorescence to be my background.
4. Repeated these steps for other cells in the field of view
5. Used the CTCF formula to calculate Mad1 expression:
CTCF=Integrated Density−(Area of selected cell×Mean fluorescence of background readings)
Micrographs were imaged using Olympus FV1200 MPE confocal microscope at 63× oil. White arrows indicate dividing cells. Representative images of N=3 biological replicates. Significance in difference of treated HCT116 cells to untreated cells was tested by Student t test (** p<0.01).

Data set [3] relates to Triple Negative Breast Cancer patient-derived organoids CTG-1520, CTG-0896, CTG-1017. In words: Viability of PDO models of taxane resistance (CellTiter-Glo, 5 days). In kind it is cell-based, human. The note with it: same patient before (CTG-1017) and after (CTG-1520) taxane-based chemotherapy. The protocol: FIGS. 9A and 9B show potency of Compound 1 in patient-derived organoid (PDO) models of taxane resistance. Patient-derived organoids were treated with Compound 1, paclitaxel or controls (0.1% DMSO, positive control—10% DMSO) for 5 days. Viability was assessed using the CellTiter-Glo® assay. IC50 and maximal (max) inhibition values were extrapolated from the viability curves. A) Model overview and dose response curves to Compound 1 and paclitaxel. B) Summary of CellTiter-Glo results in all three models tested. Compiled data of N=4 replicates.
CTG-1520 and CTG-0896 were derived from Triple Negative Breast Cancer (TNBC) patients post-treatment, and progression on a taxane-based therapy and the models' resistance to paclitaxel was confirmed by testing in vivo PDX (Patient-derived xenograft) tumor growth. […] Compound 1 and paclitaxel were tested head-to-head in each model in a dose-curve setting. 10% DMSO was used as the positive control for induction of 100% cell cytotoxicity.
Background: ATP-based viability assays read luminescence as a measure of living cells.

Data set [4] has the same test system. The note with it: CTG-1520 ex vivo; Champion Oncology Lumen Platform database; cited from earlier work.
The next data set deals with CTG-1520 PDX tumors. The note with it: CTG-1520 in vivo; Champion Oncology Lumen Platform database; cited from earlier work.
The next data set deals with CTG-1017. The note with it: CRO historical data; cited from earlier work.

Bounds are passed on as bounds.

A word on the TGI: it is how far tumour growth fell short of that in controls.

As for `CC(C)NCC(O)COc1ccc(CC(N)=O)cc1` (centres unmarked) [Atenolol, reference compound], in data set [1], the recovery at 4 h, 10 μM is < 100%.

For the compound `CC(C)NCC(O)COc1cccc2ccccc12` (centres unmarked) [Propranolol, reference compound], in data set [1] (10 μM, 4 h), the Permeability result is given as “High”. Also, the Papp at 4 h, 10 μM in data set [1] (PAMPA, read-out: Mean Pe) is 4.74 ×10⁻⁶ cm/s. Besides, the recovery at 4 h, 10 μM in data set [1] stood at 27.7%.

For `COC(=O)Nc1nc2cc(C(=O)c3cccs3)ccc2[nH]1` [nocodazole, reference compound], the “Formation of EBI:β-tubulin adducts” value in data set [2] is “inhibited formation of the EBI:β-tubulin adducts”. Further, the Mitotic spindle formation result with HCT116 cells (FIG. 4A) is on record as “lack of proper mitotic spindle formation”. Moreover, in the data set on HCT116 cells (FIG. 4B), the Mad1 signal intensity entry was “increase in Mad1 signal intensity”.

Regarding `CC(=O)O[C@H]1C(=O)[C@@]2(C)[C@H]([C@H](OC(=O)c3ccccc3)[C@]3(O)C[C@H](OC(=O)[C@H](O)[C@@H](NC(=O)c4ccccc4)c4ccccc4)C(C)=C1C3(C)C)[C@]1(OC(C)=O)CO[C@@H]1C[C@@H]2O` [paclitaxel], the “Retention of potency in matched PDO models” value in data set [3] is given as “did not”. In data set [4], the max effect is 29.1%. Besides, in the data set on CTG-1520 PDX tumors, the TGI is given as 10%. Moreover, the “Sensitivity of model in vivo” value with CTG-1017 was “sensitive”.

Source of the values: patent US20240342138A1, “MICROTUBULE TARGETING AGENTS” (BPGbio, Inc., priority 2023, published 2024).
